Test results reported in BigSolDB 2.1.

c1ccc2c(c1)Cc1ccccc1-2
Conditions | solubility (mole fraction)
in ethanol, 278.98 K | 0.00372
in ethanol, 283.99 K | 0.00455
in ethanol, 289.01 K | 0.00554
in ethanol, 294.08 K | 0.00668
in ethanol, 298.35 K | 0.00802
in ethanol, 303.36 K | 0.00973
in ethanol, 308.77 K | 0.0118
in ethanol, 313.17 K | 0.0139
in ethanol, 319.27 K | 0.0177
in ethanol, 324.95 K | 0.0216
in isopropanol, 288.28 K | 0.00221
in isopropanol, 293.69 K | 0.00313
in isopropanol, 299.5 K | 0.00453
in isopropanol, 303.17 K | 0.00565
in isopropanol, 309.06 K | 0.00802
in isopropanol, 313.78 K | 0.0105
in isopropanol, 318.24 K | 0.0135
in isopropanol, 323.17 K | 0.0179
in isopropanol, 328.25 K | 0.0237
in isopropanol, 333.45 K | 0.0314
in n-butanol, 284.27 K | 0.0059
in n-butanol, 288.82 K | 0.00724
in n-butanol, 293.76 K | 0.00906
in n-butanol, 298.88 K | 0.0113
in n-butanol, 304.06 K | 0.0139
in n-butanol, 308.28 K | 0.0168
in n-butanol, 313.93 K | 0.0212
in n-butanol, 318.16 K | 0.0251
in n-butanol, 323.16 K | 0.0304
in n-butanol, 328.25 K | 0.037
in n-butanol, 333.35 K | 0.0458
in n-butanol, 338.35 K | 0.0558
in toluene, 283.27 K | 0.0634
in toluene, 288.77 K | 0.0819
in toluene, 293.72 K | 0.102
in toluene, 298.89 K | 0.13
in toluene, 303.17 K | 0.154
in toluene, 308.81 K | 0.201
in toluene, 314.04 K | 0.252
in toluene, 319.01 K | 0.308
in toluene, 323.28 K | 0.367
